# Measured values: patent US4952565A (priority 1986, dated 1990)
# Read-outs that look alike come from different tables or passages of the source.
# How the values were obtained:
# [1] = Dissolution rates, Paddle Method, Apparatus 2 USP XXI, artificial gastric and intestinal juice; format: physicochemical; settings: 37 °C, 100 rpm, equ. 400 mg
# Procedure: The dissolution tests were performed in 0.027N HCl and 0.06N HCl (artificial gastric juice) and in artificial intestinal juice, pH 6.0, at the temperature of 37° C. The volume of the artificial biological fluids was 1000 ml. The stirring rate of the paddle mixer was 100 rpm.
# [2] = In vitro diffusion/resorption test, Stricker method, Sartorius model; format: in vitro ADME; settings: for Papp: not told, read-out: In vitro diffusion rate constant (kd) (converted)
# Procedure: The resorption tests were performed according to the Stricker method on a Sartorius Dissolution Model (Sartorius Dissolution Model, Instruction Manual, Sartorius Membranfilter, Gottingen 1972). The diffusion rates of ibuproxam through artificial lipid membranes at different pH values were determined. On the basis of the found diffusion rate constants (kd) the in vitro resorption rate constants (ka) were calculated.
# [3] = Dissolution profiles/rates on Sartorius Dissolution Model SM 16751; format: physicochemical
# Procedure: The quantities of the dissolved (MG) and of the resorbed (Mi) active ingredient were determined using a Sartorius Dissolution Model SM 16751 (Sartorius Dissolution Model, Instruction Manual, Sartorius Membranfilter, Gottingen 1972).
# [4] = In vitro ibuproxam release from pharmaceutical forms, Paddle Method USP XXI; format: physicochemical; settings: 0.027 HCl, 37 °C, 100 rpm; ibuproxam and Ibudros 400 mg, complex equiv. to 200 mg; mean of 3
smiles,measurement,setting,value
"CC(C)Cc1ccc(C(C)C(=O)NO)cc1 (stereo not shown) [ibuproxam, 2-(4-isobutylphenyl)-propiohydroxamic acid]",% of dissolved ibuproxam,"[1]; 0.027 N HCl pH 1.6, 5 min",21.4%
same,% of dissolved ibuproxam,"[1]; 0.027 N HCl pH 1.6, 15 min",28.1%
same,% of dissolved ibuproxam,"[1]; 0.027 N HCl pH 1.6, 30 min",33.3%
same,% of dissolved ibuproxam,"[1]; 0.027 N HCl pH 1.6, 45 min",37.4%
same,% of dissolved ibuproxam,"[1]; 0.027 N HCl pH 1.6, 60 min",43.1%
same,% of dissolved ibuproxam,"[1]; 0.06 N HCl pH 1.2, 5 min",21.8%
same,% of dissolved ibuproxam,"[1]; 0.06 N HCl pH 1.2, 15 min",29.8%
same,% of dissolved ibuproxam,"[1]; 0.06 N HCl pH 1.2, 30 min",37.4%
same,% of dissolved ibuproxam,"[1]; 0.06 N HCl pH 1.2, 45 min",40.4%
same,% of dissolved ibuproxam,"[1]; 0.06 N HCl pH 1.2, 60 min",41.7%
same,% of dissolved ibuproxam,"[1]; artificial intestinal juice pH 6.0, 5 min",10.2%
same,% of dissolved ibuproxam,"[1]; artificial intestinal juice pH 6.0, 15 min",21.2%
same,% of dissolved ibuproxam,"[1]; artificial intestinal juice pH 6.0, 30 min",27.7%
same,% of dissolved ibuproxam,"[1]; artificial intestinal juice pH 6.0, 45 min",32.7%
same,% of dissolved ibuproxam,"[1]; artificial intestinal juice pH 6.0, 60 min",33.3%
same,Papp,"[2]; pH 1.2, average of 4 tests",235 ×10⁻⁶ cm/s
same,Papp,"[2]; pH 3.0, average of 4 tests",238 ×10⁻⁶ cm/s
same,Papp,"[2]; pH 6.0, average of 4 tests",233 ×10⁻⁶ cm/s
same,In vitro resorption rate constant (ka),"[2]; pH 1.2, calculated from kd with G = 4.3",0.060 min⁻¹
same,In vitro resorption rate constant (ka),"[2]; pH 6.0, calculated from kd with G = 10.0",0.138 min⁻¹
same,dissolution rate (kdiss),[3],0.00017 s⁻¹
same,"effect of pH of the biological fluids on dissolution rate, in words",[3],does not affect the dissolution rate
same,% dissolved within 15 min,[4],35.8%
same,% dissolved within 30 min,[4],43.4%
same,% dissolved within 60 min,[4],54.5%
